Assay results as given in PMC4515504 (Evidence-based Complementary and Alternative Medicine : eCAM, 2015).

System: T1, alpha-glucosidase (from Bacillus stearothermophilus)
T1 construct: gene maltase
Assay: pNPG hydrolysis, Lineweaver-Burk plot
Assay type: biochemical, Geobacillus stearothermophilus
Settings: control without extract; pNPG 0.08-5 mg/mL, 37°C, 20 min; unreliable: Km extrapolated above the tested substrate range
From the text: pNPG hydrolysis, Lineweaver-Burk plot on alpha-glucosidase (from Bacillus stearothermophilus)

Alpha-glucosidase / K m: 17.39 mg/mL
SMILES: O=[N+]([O-])c1ccc(O[C@H]2O[C@H](CO)[C@@H](O)[C@H](O)[C@H]2O)cc1 [p-nitrophenyl glucopyranoside]
